Several values for one entry are separate records, joined by “and”; a condition that tells them apart may be missing. Equal values may be shown once. Read-outs that look alike come from different tables or passages of the source. Blank lines part the entries; values can stand above or below the compound they belong to.
Columns and labels:
[1] = biological target: T1, CD73 in human breast cancer samples (Homo sapiens, UniProt P21589); assay: Autoradiography on human breast tumor and sentinel lymph node cryosections; format: binding; settings: ∼1000‐fold excess of blocker with radiotracer
T1 construct: cryosections of breast tumor samples as well as sentinel lymph node samples were investigated; from tissue; host or cells: primary breast tumors and sentinel lymph nodes of two patients, 6 µm cryosections
T1 sequence (P21589 27-574): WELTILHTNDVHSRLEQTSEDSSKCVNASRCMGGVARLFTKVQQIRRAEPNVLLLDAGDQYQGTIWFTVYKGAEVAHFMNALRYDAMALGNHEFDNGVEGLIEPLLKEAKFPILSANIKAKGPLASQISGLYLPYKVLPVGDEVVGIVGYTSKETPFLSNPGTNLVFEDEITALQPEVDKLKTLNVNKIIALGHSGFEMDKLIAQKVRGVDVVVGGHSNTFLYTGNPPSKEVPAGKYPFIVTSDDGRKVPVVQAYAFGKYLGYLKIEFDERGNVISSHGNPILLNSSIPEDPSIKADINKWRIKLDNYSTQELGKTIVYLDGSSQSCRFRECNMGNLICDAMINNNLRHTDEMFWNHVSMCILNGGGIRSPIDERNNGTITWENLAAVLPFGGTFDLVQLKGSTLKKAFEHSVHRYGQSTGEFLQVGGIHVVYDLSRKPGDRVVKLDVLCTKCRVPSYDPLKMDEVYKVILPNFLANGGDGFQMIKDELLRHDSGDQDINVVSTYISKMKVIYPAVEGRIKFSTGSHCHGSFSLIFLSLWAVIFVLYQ
Procedure: To test specific radiotracer binding to its target, we performed in situ autoradiography. [^18F]2 was applied onto cryosections of neighboring slides of tumor tissues from primary breast tumors from patient X (Figure 4A) and patient Y (Figure 4B), used for immunohistochemistry and AMPase activity determination. Sentinel LN from patient Y was incubated with [^18F]1 (Figure 4C).
FIGURE 4 Autoradiographic imaging of ^18F‐labeled CD73 tracer binding to tissue samples of breast tumors and sentinel lymph nodes. Primary breast tumor (A, B) and LN cryosections (C) were incubated with [^18F]2 or [^18F]1 in the absence (control) and in the presence of an unlabeled CD73 inhibitor, AMPCP (13) or JMS04‐14 (14), as indicated. The samples were processed for autoradiographic analysis, as described in the materials and methods section. The white dotted lines outline the tissue boundaries. (D). Structures of CD73 inhibitors applied as blockers in this study.
For the assessment of ^18F-labeled CD73 tracer binding to human tissues, cryosections of breast tumor samples as well as sentinel lymph node samples were investigated. Cryosections were thawed and pre-incubated for 15 min at room temperature in 2-[4-(2-hydroxyethyl)piperazin-1-yl]ethanesulfonic acid buffer (HEPES). […] Blocking compounds were prepared according to the molar activity of the radiolabeled tracers [^18F]MRS-4648 and [^18F]PSB-19427 aiming at a 1000-fold excess of the blocking agent. For each tissue sample, neighboring sections were incubated for 20 min at room temperature with a mixture of 50µL of the radiotracer and 50µL of the classical CD73 inhibitor AMPCP (25 nmol, in PBS), or JMS0414 (61 nmol, in HEPES), or HEPES buffer respectively. After incubation, slides were washed three times with PBS and Aqua bidest, mounted on a slide holder for the image acquisition, and covered with protection and scintillation foils. Digital autoradiography measurement of each slide was performed for 60 minutes (Micro Imager, Biospace, France). Acquired data were corrected for radioactive decay in reference to the start of the acquisition as well as the start of the incubation.

[2] = biological target: T2, CD73 (cell membrane preparations of MDA-MB-231 cells) (Homo sapiens, UniProt P21589); assay: Kinetic rate index radioligand binding assay, estimation of residence time
T2 construct: endogenous in cells; host or cells: MDA-MB-231 (human triple-negative breast cancer) membrane preparation
T2 sequence (P21589 27-574): T1 sequence (P21589 27-574)
From the text: Besides affinity, binding kinetics play a crucial role in determining in vivo tracer performance. The clinical CD73 inhibitor Quemliclustat has been reported to display a very long residence time. We therefore determined the kinetic rate index (KRI) of selected CD73 inhibitors using a radioligand binding assay. […] These comparatively long residence times indicate slow dissociation from the target, which may contribute to the sustained tumor retention of [^18F]1 observed in vivo. Another effect that might play a role is pharmacological inhibition of CD73 by the high concentration of the CD73 inhibitor used for blocking. This will lead to a strong reduction in adenosine concentrations, for example, in blood vessels and other tissues, which may change hemodynamics and drug distribution. […]
Cell membrane preparations of MDA-MB-231 cells were performed as previously described.^[9^] A dual point competition assay (at 20 min and 90 min) using [^3H]PSB-17230 was employed for the determination of kinetic rate index (KRI) in analogy to a published procedure,^[60^] determined at 25°C. The residence times were calculated by linear correlation based on a large database of previously determined KRI values and residence times of analogs.

MDA‐MB‐231 tumor = assay: PET imaging in MDA-MB-231 breast cancer xenograft model; format: in vivo, NSG mice; settings: MDA‐MB‐231 model
Procedure: Given the specificity of [^18F]1 and [^18F]2 and the promising in vivo biodistribution profile of [^18F]1, we established a small‐animal human breast tumor xenograft model in NSG mice subcutaneously implanted with MDA‐MB‐231 cells. […] For blocking studies, PSB‐12651 (15, Figure 6) or unlabeled 1 were used.
FIGURE 6 PET imaging data in an MDA‐MB‐231 tumor mouse model. (A). PET images, CT scans, and merged images of [^18F]2 in the MDA‐MB‐231 tumor mouse model 90 min after tracer injection. White arrows mark the tumor positions. (B). Quantitative PET analysis of [^18F]2 uptake: activity concentration of [^18F]2 in muscle and tumor tissues 90 min after tracer injection (left) and respective tumor‐to‐muscle ratio (right, n = 5 tumors). (C). PET‐CT images of [^18F]1 and [^18F]FDG in the MDA‐MB‐231 tumor mouse model, 260 min ([^18F]1), or 75 min ([^18F]FDG) after injection. […] White arrows mark the positions of tumors. (D). Quantitative PET analysis of [^18F]1 uptake: activity concentration of [^18F]1 and [^18F]FDG in muscle and tumor tissues (left) and tumor‐to‐muscle ratios (right) after 260 min. [^18F]1: n = 18 tumors, [^18F]1 plus unlabeled 1 block: n = 8 tumors, [^18F]1 plus compound 15 block: n = 6 tumors, [^18F]FDG: n = 18 tumors E. Ex vivo analysis of [^18F]1 uptake as measured by gamma counter: activity concentrations of [^18F]1 in muscle and tumor tissues after 260 min without and with blocking (left) and tumor‐to‐muscle ratios (right). [^18F]1: n = 6 tumors, [^18F]1 plus unlabeled 1 block: n = 6 tumors, [^18F]1 plus compound 15 block: n = 5 tumors.^# relative to the respective muscle, *relative to [^18F]1 without blocker, relative to the unblocked tumor; *<0.05; **<0.01, ***<0.001,^#<0.05; ^## <0.01, ^###<0.001, <0.05; <0.01, <0.001, ns: non‐significant, unpaired t‐test.
MDA-MB-231 cells were cultivated in DMEM/GlutaMAX, supplemented with 10 % fetal calf serum, 100 U/mL penicillin, and 100 µg/mL streptomycin and L-glutamine to a final concentration of 8 mmol/L. AsPC-1 cells were cultivated in RPMI, supplemented with 10 % fetal calf serum, 100 U/mL penicillin, and 100 µg/mL streptomycin and L-glutamine to a final concentration of 8 mmol/L. 5 x 10^6 MDA-MB-231 or 1x 10^6 AsPC-1 cells were injected subcutaneously into the shoulder region of 7 to 12 weeks old NSG (NOD.Cg-Prkdc^scid Il2rg^tm1Wjl/SzJ) mice (Charles River Laboratories). Two tumors were inoculated per animal, and growth was followed by digital caliper measurements (volume = ½ (length * width^2)).
Adult C57bl/6 (biodistribution study, 19.8±1.3 g) or tumor-bearing NSG mice (22.2±2.2 g) were anesthetized by isoflurane/O2, and one lateral tail vein was cannulated using a 27 G needle. A respective radiotracer (~ 390 kBq/g body weight) was injected as a bolus via the tail vein, and subsequent PET scanning was performed. A ~1000-fold excess of unlabeled JMS0414 (14 for [^18F]MRS-4648 ([^18F]2)), unlabeled PSB-19427 (1), or PSB-12651 (15) (for [^18F]PSB-19427 ([^18F]1)) was injected into a subgroup of tumor-bearing mice 10 min before radiotracer injection in the blocking studies. PET imaging studies were carried out using a submillimeter high resolution (0.7 mm full width at half-maximum) small animal scanner (32 module quadHIDAC, Oxford Positron Systems Ltd., Oxford, UK) with a uniform spatial resolution (<1 mm) over a large cylindrical field (165 mm diameter, 280 mm axial length). […]

Compound: Nc1ncnc2c1ncn2[C@@H]1O[C@H](COP(=O)(O)CP(=O)(O)O)[C@@H](O)[C@H]1O [AMPCP, reference compound]
- Effect of co-incubated blocker on tissue-associated radioactivity [1]: markedly reduced
- residence time [2]: 8.8 min

- Effect of co-incubated blocker on tissue-associated radioactivity [1]: markedly reduced
Compound: Cn1c(=O)n([C@@H]2O[C@H](COP(=O)(O)CP(=O)(O)O)[C@@H](O)[C@H]2O)cc/c1=N/OCc1ccccc1 [JMS04-14, reference compound]

- Tumor-to-muscle ratio (MDA‐MB‐231 tumor; [18F]FDG PET, 75 min after injection): 2.04 ± 1.0 and 2.04
Compound: O=C[C@H]([18F])[C@@H](O)[C@H](O)[C@H](O)CO [[^18F]FDG, 2‐deoxy‐2‐[^18F]fluoro‐D‐glucose, reference compound]

- residence time ([2]; estimated from kinetic rate index, [3H]PSB-17230, 25 °C, read-out: Residence time): 31 min
Compound: O=P(O)(O)CP(=O)(O)OC[C@H]1O[C@@H](n2cnc3c(NCc4ccccc4)nc(Cl)nc32)[C@H](O)[C@@H]1O [PSB-12651, reference compound]
- Effect of blocker pre-treatment on tumor-to-muscle ratio of [18F]1 (MDA‐MB‐231 tumor; ~1000-fold excess injected 10 min before tracer): markedly reduced
